The values below come from US9101569B2, “Methods for the treatment of insulin resistance” (UNIVERSITE DE GENEVE, priority 2010, dated 2015).

Assay [1] relates to differentiated 3T3-L1 adipocytes. The assay is described as follows: Lipid metabolism in differentiated 3T3-L1 adipocytes in vitro. The following applies: incubated in the presence of OEA. The format is cell-based, Murine. How it is done:
The in vitro effect of OT on lipid metabolism in differentiated 3T3-L1 adipocytes was assayed as follows. Murine 3T3-L1 fibroblasts were differentiated towards a […] phenotype as previously described (Olson et al., 1997, Mol. Cell. Biol., 2425-2435). In brief, cells were cultured in Dulbecco's modified eagle medium (DMEM) with 4.5 g/l glucose supplemented with 10% heat-inactivated depleted calf serum (DCS) at 37° C./8% CO2. Cells were induced to differentiate, two days post confluence, by sequential incubations with: DMEM 4.5 g/l glucose, 10% fetal bovine serum (FCS) containing 1 μg/ml insulin, 0.25 μM dexamethasone and 0.5 mM isobutylmethylxanthane (IBMX) for 4 days; DMEM 4.5 g/l glucose, 10% FCS containing insulin alone for an additional 4 days; DMEM 4.5 g/l glucose, 10% FCS for 3-4 days. Differentiation was considered achieved when more than 90% of cells display an accumulation of large lipid droplets in their cytoplasm.

The test system of assay [2] is HFD-induced obese rats. The assay is described as follows: High-fat diet-induced obesity rat model, subcutaneous infusion: body weight gain, food intake, body composition. The class given is in vivo. The conditions noted are these: for food intake / body weight gain: 14 days; for body weight gain: not observed in pair-fed group. How it is done:
Another group of the above male Wistar rats were rendered obese as described above and were subcutaneously infused with saline or OT (NeoMPS®, Strasbourg, France) (50 nmol/day/rat) during 14 days.
The beneficial metabolic effects of OT administration were assayed in the same high-fat diet induced obesity model in rats as in Example 1 and in PPAR-alpha knockout mice (Lee et al., 1995, Mol. Cell. Biol., 15(6):3012-22). HFD-induced obese animals, saline or OT groups (see conditions under Example 1) were subcutaneously infused via minipumps (Alzet®, as above). OT was delivered at a dose of 50 nmol/day/rat during 14 days.
An EchoMRI-700 quantitative nuclear magnetic resonance (QMR) analyzer (Echo Medical Systems, Houston, Tex.) was used to measure total fat mass and lean body mass in rats at the beginning and the end of the treatment.
The beneficial metabolic effects of administration of an oxytocin derivative according to the invention (Carbetocin) were assessed in the same rat model of high-fat diet induced obesity as in Example 1. HFD-induced obese animals were subcutaneously infused via minipumps (Alzet®, as above) with saline or carbetocin (Bachem) (5 nmol/day/rat or 50 nmol/day/rat) during 14 days.
Body composition parameters were measured by quantitative nuclear magnetic resonance as described in Example 3 at the beginning and 10 days of treatment.

*1 amine or outer side, *2 acyl side, *3 side chain or, on linkers, in order; H or OH if unused. Where a SMILES comes first, the peptide text is derived from it. Bridges are numbered along the chain shown (N, C = ends). X1 = O=C(CCC[*:2])[*:1]

Consider `CCCCCCCC/C=C\CCCCCCCC(=O)NCCO` [OEA, Oleoylethanolamide], for which, in assay [1], the “mRNA expression of PPAR-alpha” value was “induce” and the “mRNA expression of most of the PPAR-alpha related genes (Acadm, Acox1, Ehhadh, Ucp3)” value is “induce”.
`CC[C@H](C)[C@@H]1NC(=O)[C@H](Cc2ccc(OC)cc2)NC(=O)CCCSC[C@@H](C(=O)N2CCC[C@H]2C(=O)N[C@@H](CC(C)C)C(=O)NCC(N)=O)NC(=O)[C@H](CC(N)=O)NC(=O)[C@H](CCC(N)=O)NC1=O` [carbetocin, Butyryl-Tyr(Me)-Ile-Gln-Asn-Cys-Pro-Leu-Gly-NH2] (Y(Me)IQNCPLG-NH2; linker N-5 via X1): in assay [2] (s.c. 5 nmol/day), the food intake result was “decreased” and the body weight gain result is reported as “decreased”. In assay [2] (s.c. 50 nmol/day), the food intake result is recorded as “decreased” and the body weight gain result is reported as “decreased”. Moreover, the “fat mass (QMR)” value in assay [2] (s.c. carbetocin (5 nmol/d and 50 nmol/d groups), 10 days, independent of food intake) is reported as “significant decrease”.
